From patent US9896441B2 (Lycera Corporation, priority 2014, dated 2018)

Experiments:
RORγ-LBD = biological target: T1, RORγ-LBD (Homo sapiens, UniProt P51449); experiment: RORγ-Ligand Binding Domain (LBD) TR-FRET Assay; assay type: biochemical; details: for TR-FRET Assay Max Response: maximum response;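 for TR-FRET Assay Max Response: 665/615 nm signal ratio set to 100 without ursolic acid or test compound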
T1 construct: made in house; host or cells: SF9 cells (baculovirus); used as diluted lysate
T1 sequence (P51449 269-508 limits assumed): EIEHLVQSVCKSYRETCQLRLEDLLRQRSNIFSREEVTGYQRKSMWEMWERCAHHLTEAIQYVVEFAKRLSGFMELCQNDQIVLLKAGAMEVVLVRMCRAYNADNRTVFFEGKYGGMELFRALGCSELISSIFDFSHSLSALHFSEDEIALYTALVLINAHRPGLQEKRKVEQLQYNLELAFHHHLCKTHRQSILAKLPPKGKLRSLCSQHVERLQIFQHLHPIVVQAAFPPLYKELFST
Method in brief: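 Compounds, diluted in DMSO and then in assay buffer (1% DMSO final), were combined with His-tagged RORγ-LBD lysate at roughly 3 nM final and a 200 nM biotinylated SRC1 LXXLL peptide. Ursolic acid was included at 2 μM final. Coactivator recruitment was detected by TR-FRET.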

Gal4-RORγ-LBD = biological target: T2, Gal4-RORγ-LBD (Homo sapiens, UniProt P51449); experiment: Gal4-RORγ Luciferase Reporter Assay in HEK-293T Cells; assay type: cell-based; details: HEK-293 cells; for Gal4-RORγ Assay Max Response: maximum response
T2 construct: expressed in transfected cells
T2 sequence (P51449 269-508 limits assumed): T1 sequence (P51449 269-508 limits assumed)
Method in brief: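 Max Response was taken as the upper plateau of a 4-parameter logistic fit of luciferase signal, normalized to 100 for wells without ursolic acid or compound. Transiently Gal4-RORγ-LBD/Gal4-luc transfected HEK-293 cells carrying […] ursolic acid were incubated with test compounds (0.2% DMSO) overnight at 37 °C and read with One-Glo.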

[1] = luciferase reporter, in presence of ursolic acid
[2] = luciferase reporter, with ursolic acid
[3] = with 2 μM ursolic acid (RORγ antagonist), highest test concentration 10 μM
[4] = ursolic acid present, luciferase readout

EC50 (RORγ-LBD; RORγ-LBD TR-FRET) [nM]	EC50 (Gal4-RORγ-LBD; [2]) [nM]	Compound	also measured
–	–	CC/C(C)=C\c1ccc2c(c1)N(S(=O)(=O)c1cc(C(F)(F)F)cnc1OCCO)C[C@H](CCC(=O)O)O2 [Example 191D, (S,Z)-3-(4-((2-(2-hydroxyethoxy)-5-(trifluoromethyl)pyridin-3-yl)sulfonyl)-6-(2-methylbut-1-en-1-yl)-3,4-dihydro-2H-benzo[b][1,4]oxazin-2-yl)propanoic acid]	EC50 (RORγ-LBD; RORγ-LBD TR-FRET assay): < 500 nM; TR-FRET Assay Max Response (RORγ-LBD; RORγ-LBD TR-FRET assay): ** (a value in the range of greater than 90 to 150); EC50 (Gal4-RORγ-LBD; [1]): > 10000 nM
< 500	500 to 5000	COC(=O)CC[C@H]1CN(S(=O)(=O)c2cccc(OC(F)F)c2)c2cc(/C=C/c3ccccn3)ccc2O1 [Example 89D, (S,E)-methyl 3-(4-((3-(difluoromethoxy)phenyl)sulfonyl)-6-(2-(pyridin-2-yl)vinyl)-3,4-dihydro-2H-benzo[b][1,4]oxazin-2-yl)propanoate]	–
< 500	500 to 5000	C/C(=C\c1ccc2c(c1C)N(S(=O)(=O)c1cccc(OC(F)F)c1)C[C@H](CCC(=O)O)O2)c1c(F)cccc1Cl [Example 60, (S,E)-3-(6-(2-(2-Chloro-6-fluorophenyl)prop-1-en-1-yl)-4-((3-(difluoromethoxy)phenyl)sulfonyl)-5-methyl-3,4-dihydro-2H-benzo[b][1,4]oxazin-2-yl)propanoic acid]	–
–	–	COC(=O)CCC[C@H]1CN(S(=O)(=O)c2cc(C(F)(F)F)cnc2OCCO)c2cc(/C=C/c3c(F)cccc3Cl)ccc2O1 [Example 195C, methyl (S,E)-4-(6-(2-chloro-6-fluorostyryl)-4-((2-(2-hydroxyethoxy)-5-(trifluoro-methyl)pyridin-3-yl)sulfonyl)-3,4-dihydro-2H-benzo[b][1,4]-oxazin-2-yl)butanoate]	EC50 (RORγ-LBD; [3]): < 500 nM; EC50 (Gal4-RORγ-LBD; [4]): 500 to 5000 nM
< 500	< 500	O=C(O)CC[C@H]1CN(S(=O)(=O)c2cccc(C(F)(F)F)c2)c2cc(/C=C3\CCCc4ccccc43)ccc2O1 [Example 37, (S,E)-3-(6-((3,4-Dihydronaphthalen-1(2H)-ylidene)methyl)-4-((3-(trifluoromethyl)phenyl)sulfonyl)-3,4-dihydro-2H-benzo[b][1,4]oxazin-2-yl)propanoic acid]	–
> 10000	> 10000	CCOc1nn(CC)cc1S(=O)(=O)N1C[C@H](CCC(=O)O)Oc2ccc(/C=C/c3ccccn3)cc21 [Example 89E, (S,E)-3-(4-((3-ethoxy-1-ethyl-1H-pyrazol-4-yl)sulfonyl)-6-(2-(pyridin-2-yl)vinyl)-3,4-dihydro-2H-benzo[b][1,4]oxazin-2-yl)propanoic acid]	–
< 500	> 10000	CCOc1nn(CC)cc1S(=O)(=O)N1C[C@H](CCC(=O)OC)Oc2ccc(/C=C/c3ccccc3Cl)cc21 [Example 89BD, (S,E)-methyl 3-(6-(2-chlorostyryl)-4-((3-ethoxy-1-ethyl-1H-pyrazol-4-yl)sulfonyl)-3,4-dihydro-2H-benzo[b][1,4]-oxazin-2-yl)propanoate]	–
< 500	< 500	CCOc1nn(CC)cc1S(=O)(=O)N1C[C@H](CCC(=O)OC)Oc2ccc(/C=C/c3ccccc3SC)cc21 [Example 89AV, (S,E)-methyl 3-(4-((3-ethoxy-1-ethyl-1H-pyrazol-4-yl)sulfonyl)-6-(2-(methylthio)styryl)-3,4-dihydro-2H-benzo[b][1,4]oxazin-2-yl)propanoate]	–
> 10000	> 10000	CCOc1nn(CC)cc1S(=O)(=O)N1C[C@H](CCC(=O)OC)Oc2ccc(/C=C/c3cccc(OC)n3)cc21 [Example 89T, (S,E)-methyl 3-(4-((3-ethoxy-1-ethyl-1H-pyrazol-4-yl)-sulfonyl)-6-(2-(6-methoxypyridin-2-yl)vinyl)-3,4-dihydro-2H-benzo[b][1,4]-oxazin-2-yl)propanoate]	–
> 10000	> 10000	CCOc1nn(CC)cc1S(=O)(=O)N1C[C@H](CCC(=O)O)Oc2ccc(/C=C/c3ccc(C#N)cc3)cc21 [Example 89DC, (S,E)-3-(6-(4-cyanostyryl)-4-((3-ethoxy-1-ethyl-1H-pyrazol-4-yl)sulfonyl)-3,4-dihydro-2H-benzo[b][1,4]oxazin-2-yl)propanoic acid]	–
< 500	500 to 5000	COC(=O)CC[C@H]1CN(S(=O)(=O)c2cccc(C(F)(F)F)c2)c2cc(/C=C/c3cccc(F)c3Cl)ccc2O1 [Example 89BQ, (S,E)-methyl 3-(6-(2-chloro-3-fluorostyryl)-4-((3-(trifluoromethyl)phenyl)sulfonyl)-3,4-dihydro-2H-benzo[b][1,4]oxazin-2-yl)propanoate]	–
–	–	COc1cc(S(=O)(=O)N2C[C@H](CCC(=O)O)Oc3ccc(/C=C(\C)C4CCCC4)cc32)ccc1F [Example 191A, (S,E)-3-(6-(2-cyclopentylprop-1-en-1-yl)-4-((4-fluoro-3-methoxyphenyl)sulfonyl)-3,4-dihydro-2H-benzo[b][1,4]-oxazin-2-yl)propanoic acid]	EC50 (RORγ-LBD; RORγ-LBD TR-FRET assay): < 500 nM; TR-FRET Assay Max Response (RORγ-LBD; RORγ-LBD TR-FRET assay): ** (a value in the range of greater than 90 to 150); EC50 (Gal4-RORγ-LBD; [1]): 500 to 5000 nM; Gal4-RORγ Assay Max Response (Gal4-RORγ-LBD; [1]): ** (a value in the range of greater than 90 to 150)
< 500	500 to 5000	C/C(=C\c1ccc2c(c1)N(S(=O)(=O)c1cccc(OC(F)(F)F)c1)C[C@H](CCC(=O)O)O2)c1c(F)cccc1Cl [Example 86S, (S,E)-3-(6-(2-(2-chloro-6-fluorophenyl)prop-1-en-1-yl)-4-((3-(trifluoromethoxy)phenyl)-sulfonyl)-3,4-dihydro-2H-benzo[b][1,4]oxazin-2-yl)propanoic acid]	–
–	–	CC(=O)NCC1CC(S(=O)(=O)c2cccc(C(F)(F)F)c2)c2cc(/C=C(\C)c3c(F)cccc3Cl)ccc2O1 (stereo not drawn) [Example 181, (E)-N-((6-(2-(2-Chloro-6-fluorophenyl)prop-1-en-1-yl)-4-((3-(trifluoromethyl)phenyl)sulfonyl)chroman-2-yl)methyl)acetamide]	EC50 (RORγ-LBD; RORγ-LBD TR-FRET assay): < 500 nM; TR-FRET Assay Max Response (RORγ-LBD; RORγ-LBD TR-FRET assay): ** (a value in the range of greater than 90 to 150); EC50 (Gal4-RORγ-LBD; [1]): < 500 nM; Gal4-RORγ Assay Max Response (Gal4-RORγ-LBD; [1]): ** (a value in the range of greater than 90 to 150)
–	–	C/C(=C\c1ccc2c(c1)N(S(=O)(=O)c1cccc(C(F)(F)F)c1)C[C@H](CCN1CCC(O)C1)O2)c1c(F)cccc1Cl (stereo partly drawn) [Example 119C, 1-(2-((S)-6-((E)-2-(2-chloro-6-fluorophenyl)prop-1-en-1-yl)-4-((3-(trifluoromethyl)-phenyl)sulfonyl)-3,4-dihydro-2H-benzo[b][1,4]oxazin-2-yl)ethyl)pyrrolidin-3-ol]	EC50 (RORγ-LBD; RORγ-LBD TR-FRET assay): < 500 nM; TR-FRET Assay Max Response (RORγ-LBD; RORγ-LBD TR-FRET assay): *** (a value in the range of greater than 150 to 200); EC50 (Gal4-RORγ-LBD; [1]): 500 to 5000 nM; Gal4-RORγ Assay Max Response (Gal4-RORγ-LBD; [1]): ** (a value in the range of greater than 90 to 150)
–	–	CCOc1ncc(C(F)(F)F)cc1S(=O)(=O)N1C[C@H](CNC(=O)CCC(=O)O)Oc2ccc(/C=C/c3c(F)cccc3Cl)cc21 [Example 109F, (S,E)-4-(((6-(2-chloro-6-fluorostyryl)-4-((2-ethoxy-5-(trifluoro-methyl)pyridin-3-yl)sulfonyl)-3,4-dihydro-2H-benzo[b][1,4]oxazin-2-yl)methyl)amino)-4-oxobutanoic acid]	EC50 (RORγ-LBD; RORγ-LBD TR-FRET assay): < 500 nM; TR-FRET Assay Max Response (RORγ-LBD; RORγ-LBD TR-FRET assay): *** (a value in the range of greater than 150 to 200); EC50 (Gal4-RORγ-LBD; [1]): 500 to 5000 nM; Gal4-RORγ Assay Max Response (Gal4-RORγ-LBD; [1]): ** (a value in the range of greater than 90 to 150)
–	–	CC/C(=C\c1ccc2c(c1)N(S(=O)(=O)c1cc(C(F)(F)F)cnc1OCCO)C[C@H](CCC(=O)O)O2)C(C)C [Example 191E, (S,E)-3-(6-(2-ethyl-3-methylbut-1-en-1-yl)-4-((2-(2-hydroxy-ethoxy)-5-(trifluoromethyl)-pyridin-3-yl)sulfonyl)-3,4-dihydro-2H-benzo[b][1,4]oxazin-2-yl)propanoic acid]	EC50 (RORγ-LBD; [3]): < 500 nM; EC50 (Gal4-RORγ-LBD; [4]): 500 to 5000 nM
500 to 5000	< 500	C/C(=C\c1cc2c(cc1Cl)O[C@@H](CCC(=O)O)CN2S(=O)(=O)c1cccc(OC(F)F)c1)c1c(F)cccc1Cl [Example 48, (S,E)-3-(6-(2-(2-Chloro-6-fluorophenyl)prop-1-en-1-yl)-4-((3-(difluoromethoxy)phenyl)sulfonyl)-7-chloro-3,4-dihydro-2H-benzo[b][1,4]oxazin-2-yl)propanoate]	–
–	–	C[C@H]1CN(S(=O)(=O)c2ccc(F)cc2)c2cc(COc3c(F)cccc3Cl)ccc2O1	EC50 (RORγ-LBD; [3]): < 500 nM; EC50 (Gal4-RORγ-LBD; [4]): 5000 to 10000 nM
< 500	< 500	C/C(=C\c1ccc2c(c1)N(S(=O)(=O)c1ccc(F)c(OC(F)F)c1)C[C@H](CCC(=O)O)O2)c1c(F)cccc1Cl [Example 86AS, (S,E)-3-(6-(2-(2-chloro-6-fluorophenyl)prop-1-en-1-yl)-4-((3-(difluoromethoxy)-4-fluorophenyl)sulfonyl)-3,4-dihydro-2H-benzo[b][1,4]oxazin-2-yl)propanoic acid]	–
< 500	< 500	COC(=O)CC[C@H]1CN(S(=O)(=O)c2cccc(C(F)(F)F)c2)c2cc(/C=C(\C)c3ccccc3Cl)ccc2O1 [Example 86Z, (S,E)-methyl 3-(6-(2-(2-chlorophenyl)prop-1-en-1-yl)-4-((3-(trifluoromethyl)phenyl)-sulfonyl)-3,4-dihydro-2H-benzo[b][1,4]oxazin-2-yl)propanoate]	–
